Assay results as given in US10053477B2, “Spirocyclic aryl phosphorus oxide and aryl phosphorus sulfide” (QILU PHARMACEUTICAL CO., LTD., priority 2014, dated 2018).
Values belong to the molecule of their own block, whether it stands above or below them.

Key:
EGFR T790M/L858R = target: T1, EGFR T790M/L858R (Homo sapiens, UniProt P00533, L858R/T790M); assay: EGFR T790M/L858R enzymatic inhibition (HTRF); assay type: biochemical; details: 20 μM ATP
T1 construct: purchased Life technology (Madison, Wis.)
T1 sequence (P00533 25-1210 T790M/L858R): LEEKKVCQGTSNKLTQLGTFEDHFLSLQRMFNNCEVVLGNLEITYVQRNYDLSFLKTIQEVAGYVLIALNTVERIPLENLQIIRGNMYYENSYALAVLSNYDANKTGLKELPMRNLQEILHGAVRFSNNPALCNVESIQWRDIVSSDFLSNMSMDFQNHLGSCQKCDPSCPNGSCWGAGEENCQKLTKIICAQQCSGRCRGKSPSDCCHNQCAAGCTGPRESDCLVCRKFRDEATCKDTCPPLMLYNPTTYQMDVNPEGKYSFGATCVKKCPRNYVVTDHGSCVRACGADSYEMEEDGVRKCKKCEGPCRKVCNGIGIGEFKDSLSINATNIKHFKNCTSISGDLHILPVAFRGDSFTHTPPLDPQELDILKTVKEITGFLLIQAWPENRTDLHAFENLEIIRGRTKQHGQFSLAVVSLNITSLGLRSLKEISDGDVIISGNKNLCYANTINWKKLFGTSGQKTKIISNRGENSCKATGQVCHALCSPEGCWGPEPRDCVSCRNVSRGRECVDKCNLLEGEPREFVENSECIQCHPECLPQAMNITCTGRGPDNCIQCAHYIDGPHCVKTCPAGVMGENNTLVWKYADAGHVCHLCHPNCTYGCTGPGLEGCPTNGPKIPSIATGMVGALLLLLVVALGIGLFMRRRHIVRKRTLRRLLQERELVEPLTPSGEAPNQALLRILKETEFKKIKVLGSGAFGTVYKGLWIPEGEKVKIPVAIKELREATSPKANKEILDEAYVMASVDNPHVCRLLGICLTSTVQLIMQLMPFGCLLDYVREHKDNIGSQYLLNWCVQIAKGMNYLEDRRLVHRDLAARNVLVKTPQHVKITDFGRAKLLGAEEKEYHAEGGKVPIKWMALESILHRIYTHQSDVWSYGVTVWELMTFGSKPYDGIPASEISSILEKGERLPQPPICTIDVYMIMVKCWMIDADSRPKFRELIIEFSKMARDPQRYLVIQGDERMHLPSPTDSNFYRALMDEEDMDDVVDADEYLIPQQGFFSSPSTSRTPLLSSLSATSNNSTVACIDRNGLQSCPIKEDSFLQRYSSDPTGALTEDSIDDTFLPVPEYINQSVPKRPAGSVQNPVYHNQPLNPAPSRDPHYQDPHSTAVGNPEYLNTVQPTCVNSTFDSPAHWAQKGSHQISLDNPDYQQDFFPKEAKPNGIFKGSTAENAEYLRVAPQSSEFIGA
Experimental: Enzyme: ALK wild-type, ALK C1156Y and ALK L1196M supplied by Carna Biosciences (Japan), EGFR T790M/L858R supplied by Life technology (Madison, Wis.).
HTRF kit: supplied by Cis-Bio International, with Eu-marked TK1 antibody, XL665- and biotin-labelled TK1 polypeptide substrates.
The compound to be tested is diluted at a gradient by 3 times thereby giving 11 gradients starting from […] to 0.017 nM for the final concentration.
10 μl EGFR T790M/L858R enzyme reaction mixture system: 0.08 nM EGFR T790M/L858R, 1 μM biotin-TK1 peptide, 20 μM ATP. Reaction buffer: 50 mM Hepes (pH7.5), 10 mM MgCl2, 0.01 mM NaV3VO4. The reaction plate was white Proxiplate 384-Plus plate (PerkinElmer). Reaction was reacted at room temperature for 60 minutes.
Detecting reaction: 10 μl testing reagent was added to the reaction plate, the final concentration of Antibody was 2 nM, XL665 was 62.5 nM. Incubation was carried out for 60 minutes at room temperature. Detection was by Envision.

[1] = system: LU-01-0015 xenotransplantation (PDX) from lung cancer patients; assay: In vivo efficacy, LU-01-0015 xenotransplantation (PDX) from lung cancer patients; set-up: species or system BALB/c nude mice; details: 25 mg/kg orally everyday
Excerpt: BALB/c nude mice, female, 6 to 8 weeks, about 18 to 22 g bodyweight, was kept in a special environment without pathogens, and a single ventilated cage (5 mice per cage). Beddings and water in all the cages were disinfected before use. […] 80 mice were supplied by Shanghai BK Laboratory Animal Co., LTD for study. Each mouse was subcutaneously implanted tumor tissue (20-30 mm^3) at right flank for growth of tumor. When the average tumor volume reached about 250-300 mm^3, the assay started. Test compounds were delivered orally everyday, 25 mg/kg. Tumor size was measured with two-dimensional caliper every 3 days, size was recorded by mm^3, and calculated by the following formula: V=V=0.5a×b2, where a and b are respectively the long diameter and short diameter length of the tumor. The antitumor efficacy was determined by dividing the average increased tumor volume in compound-treated animal by the average increased tumor volume in untreated animal.

[2] = system: LU-01-0319 Crizotinib resistance model; assay: In vivo anti-tumor efficacy, Crizotinib resistant LU-01-0319 xenotransplantation (PDX) tumor; set-up: species or system BALB/c nude mice
Excerpt: LU-01-0319 xenotransplantation tumor models initially obtained from clinical sample through surgical resection were implanted into nude mice, which was defined as a batch of P0 (LU-01-0319-P0). The next batch was defined as P1 (LU-01-0319-P1) which was implanted tumors from P0. FP3 was regained from P2, the next batch was defined as FP4 which was implanted tumors from FP3. […] The continuous increasing tumors were defined as LU-01-0319 antitumor models. BALB/c nude mice, female, 6 to 8 weeks, about 18 to 22 g bodyweight, 75 mice were used for study, supplied by Shanghai BK Laboratory Animal Co., LTD. Tumour biopsies (about 30 mm^3) of LU-01-0319R FP6 were implanted subcutaneously on right side of each mouse for growth of tumor. […] Dose of Crizotinib was appropriately varied depending on the tumor size. When average tumor volume reached about ˜500 mm^3, the assay began. Once a day the compounds to be tested were orally administered. Tumor size were measured twice a week with a caliper at two dimensions, and calculated with the following formula: V=0.5a×b2, where a and b are respectively long diameter and short diameter of the tumor. The antitumor efficacy was determined by dividing the average increased tumor volume in compound-treated animal by the average increased tumor volume in untreated animal.

IC50 (EGFR T790M/L858R): 1 to 100 nM
SMILES: COc1cc(N2CCC3(CCNC3)CC2)ccc1Nc1ncc(Cl)c(Nc2ccccc2P(C)(C)=O)n1 [Compound 3, (2-((5-Chloro-2-((2-methoxy-4-(2,8-diazaspiro[4.5]decan-8-yl)phenyl)amino)pyrimidin-4-yl)amino)phenyl)dimethylphosphine oxide]

IC50 (EGFR T790M/L858R): 1 to 100 nM
SMILES: COc1cc(N2CCC3(CC2)CNC3)ccc1Nc1ncc(Cl)c(Nc2ccccc2P(C)(C)=O)n1 [Compound 4, (2-((5-Chloro-2-((2-methoxy-4-(2,7-diazaspiro[3.5]nonan-7-yl)phenyl)amino)pyrimidin-4-yl)amino)phenyl)dimethyl phosphine oxide]

IC50 (EGFR T790M/L858R): 1 to 100 nM
SMILES: COc1cc(N2CCC3(CNC3)C2)ccc1Nc1ncc(Cl)c(Nc2ccccc2P(C)(C)=O)n1 [Compound 6, (2-((5-Chloro-2-((2-methoxy-4-(2,6-diazaspiro[3.4]octan-6-yl)phenyl)amino)pyrimidin-4-yl)amino)phenyl)dimethyl phosphine oxide]

IC50 (EGFR T790M/L858R): 1 to 100 nM
SMILES: COc1cc(N2CCC3(CCNCC3)CC2)ccc1Nc1ncc(Cl)c(Nc2ccccc2P(C)(C)=O)n1 [Compound 8, (2-((5-Chloro-2-((2-methoxy-4-(3,9-diazaspiro[5.5]undecan-3-yl)phenyl)amino)pyrimidin-4-yl)amino)phenyl)dimethyl phosphine oxide]

IC50 (EGFR T790M/L858R): 1 to 100 nM
SMILES: CN1CCC2(CC1)CCN(c1ccc(Nc3ncc(Cl)c(Nc4ccccc4P(C)(C)=O)n3)c(OC(F)F)c1)CC2 [Compound 11, (2-((5-Chloro-2-((2-(difluoromethoxy)-4-(9-methyl-3,9-diazaspiro[5.5]undecan-3-yl)phenyl)amino)pyrimidin-4-yl)amino)phenyl)dimethyl phosphine oxide]

SMILES: COc1cc(N2CCC3(CCN(C)CC3)CC2)ccc1Nc1ncc(Cl)c(Nc2ccccc2P(C)(C)=S)n1 [Compound 12, 5-Chloro-N^4-(2-(dimethylphosphorothioyl)phenyl)-N^2-(2-methoxy-4-(9-methyl-3,9-diazaspiro[5.5]undecan-3-yl)phenyl)pyrimidine-2,4-diamine]
IC50 (EGFR T790M/L858R): 1 to 100 nM
Tumor volume ([1]; 3 days): 199 mm^3
Tumor volume ([1]; 6 days): 97 mm^3
Tumor volume ([1]; 9 days): 90 mm^3
Tumor volume ([1]; 12 days): 58 mm^3
Tumor volume ([1]; 16 days): 49 mm^3
Tumor volume ([1]; 19 days): 42 mm^3
Tumor volume ([1]; 23 days): 32 mm^3

IC50 (EGFR T790M/L858R): 1 to 100 nM
SMILES: COc1cc(N2CCC3(CCN(C)CC3)CC2)c(F)cc1Nc1ncc(Cl)c(Nc2ccccc2P(C)(C)=O)n1 [Compound 20, (2-((5-Chloro-2-((5-fluoro-2-methoxy-4-(9-methyl-3,9-diazaspiro[5.5]undecan-3-yl)phenyl)amino)pyrimidin-4-yl)amino)phenyl)dimethyl phosphine oxide]

IC50 (EGFR T790M/L858R): 1 to 100 nM
SMILES: COc1cc(N2CCC3(CCN(C)CC3)CC2)c(Cl)cc1Nc1ncc(Cl)c(Nc2ccccc2P(C)(C)=O)n1 [Compound 22, (2-((5-Chloro-2-((5-chloro-2-methoxy-4-(9-methyl-3,9-diazaspiro[5.5]undecan-3-yl)phenyl)amino)pyrimidin-4-yl)amino)phenyl)dimethyl phosphine oxide]
Tumor volume ([1]; 3 days): 234 mm^3
Tumor volume ([1]; 6 days): 137 mm^3
Tumor volume ([1]; 9 days): 90 mm^3
Tumor volume ([1]; 12 days): 68 mm^3
Tumor volume ([1]; 16 days): 46 mm^3
Tumor volume ([1]; 19 days): 54 mm^3
Tumor volume ([1]; 23 days): 41 mm^3

IC50 (EGFR T790M/L858R): 1 to 100 nM
SMILES: COc1cc(N2CCC3(CCN(C)CC3)CC2)c(C)cc1Nc1ncc(Cl)c(Nc2ccccc2P(C)(C)=O)n1 [Compound 23, (2-((5-Chloro-2-((2-methoxy-5-methyl-4-(9-methyl-3,9-diazaspiro[5.5]undecan-3-yl)phenyl)amino)pyrimidin-4-yl)amino)phenyl)dimethyl phosphine oxide]

IC50 (EGFR T790M/L858R): 101 to 1000 nM
SMILES: COc1cc(N2CCC3(CCN(C)CC3)CC2)ccc1Nc1ncc(Cl)c(Nc2c(F)cccc2P(C)(C)=O)n1 [Compound 25, (2-((5-Chloro-2-((2-methoxy-4-(9-methyl-3,9-diazaspiro[5.5]undecan-3-yl)phenyl)amino)pyrimidin-4-yl)amino)-3-fluorophenyl)dimethyl phosphine oxide]

IC50 (EGFR T790M/L858R): 1 to 100 nM
SMILES: COc1cc(N2CCC3(CCN(C)CC3)CC2)ccc1Nc1ncc(Cl)c(Nc2ccc(F)cc2P(C)(C)=O)n1 [Compound 26, (2-((5-Chloro-2-((2-methoxy-4-(9-methyl-3,9-diazaspiro[5.5]undecan-3-yl)phenyl)amino)pyrimidin-4-yl)amino)-5-fluorophenyl)dimethyl phosphine oxide]
Tumor volume ([1]; 3 days): 235 mm^3
Tumor volume ([1]; 6 days): 127 mm^3
Tumor volume ([1]; 9 days): 84 mm^3
Tumor volume ([1]; 12 days): 55 mm^3
Tumor volume ([1]; 16 days): 46 mm^3
Tumor volume ([1]; 19 days): 59 mm^3
Tumor volume ([1]; 23 days): 53 mm^3

IC50 (EGFR T790M/L858R): 1 to 100 nM
SMILES: COc1cc(C2CCC3(CC2)CCN(C)CC3)ccc1Nc1ncc(Cl)c(Nc2ccccc2P(C)(C)=O)n1 [Compound 27, (2-((5-Chloro-2-((2-methoxy-4-(3-methyl-3-azaspiro[5.5]undecan-9-yl)phenyl)amino)pyrimidin-4-yl)amino)phenyl)dimethyl phosphine oxide]
Tumor volume ([2]; 0 day, dosage 3 mg/Kg orally once a day): 503 mm^3
Tumor volume ([2]; 0 day, dosage 10 mg/Kg orally once a day): 502 mm^3
Tumor volume ([2]; 3 days, dosage 3 mg/Kg orally once a day): 689 mm^3
Tumor volume ([2]; 3 days, dosage 10 mg/Kg orally once a day): 650 mm^3
Tumor volume ([2]; 7 days, dosage 3 mg/Kg orally once a day): 777 mm^3
Tumor volume ([2]; 7 days, dosage 10 mg/Kg orally once a day): 752 mm^3
Tumor volume ([2]; 10 days, dosage 3 mg/Kg orally once a day): 1003 mm^3
Tumor volume ([2]; 10 days, dosage 10 mg/Kg orally once a day): 743 mm^3
Tumor volume ([2]; 13 days, dosage 3 mg/Kg orally once a day): 1177 mm^3
Tumor volume ([2]; 13 days, dosage 10 mg/Kg orally once a day): 705 mm^3
Tumor volume ([2]; 17 days, dosage 3 mg/Kg orally once a day): 1490 mm^3
Tumor volume ([2]; 17 days, dosage 10 mg/Kg orally once a day): 756 mm^3
Tumor volume ([2]; 19 days, dosage 3 mg/Kg orally once a day): 1602 mm^3
Tumor volume ([2]; 19 days, dosage 10 mg/Kg orally once a day): 692 mm^3
Tumor volume ([1]; 3 days): 158 mm^3
Tumor volume ([1]; 6 days): 82 mm^3
Tumor volume ([1]; 9 days): 68 mm^3
Tumor volume ([1]; 12 days): 49 mm^3
Tumor volume ([1]; 16 days): 34 mm^3
Tumor volume ([1]; 19 days): 41 mm^3
Tumor volume ([1]; 23 days): 35 mm^3

SMILES: C[C@@H](Oc1cc(-c2cnn(C3CCNCC3)c2)cnc1N)c1c(Cl)ccc(F)c1Cl [Crizotinib, reference compound]
Tumor volume ([2]; 0 day, 25 mg/Kg orally once a day): 502 mm^3
Tumor volume ([2]; 3 days, 25 mg/Kg orally once a day): 708 mm^3
Tumor volume ([2]; 7 days, 25 mg/Kg orally once a day): 828 mm^3
Tumor volume ([2]; 10 days, 25 mg/Kg orally once a day): 1002 mm^3
Tumor volume ([2]; 13 days, 25 mg/Kg orally once a day): 1116 mm^3
Tumor volume ([2]; 17 days, 25 mg/Kg orally once a day): 1415 mm^3
Tumor volume ([2]; 19 days, 25 mg/Kg orally once a day): 1488 mm^3
Tumor volume ([1]; 3 days): 297 mm^3
Tumor volume ([1]; 6 days): 288 mm^3
Tumor volume ([1]; 9 days): 311 mm^3
Tumor volume ([1]; 12 days): 340 mm^3
Tumor volume ([1]; 16 days): 413 mm^3
Tumor volume ([1]; 19 days): 419 mm^3
Tumor volume ([1]; 23 days): 439 mm^3
